Data: ChEMBL document CHEMBL2311264, “Synthesis and anticancer activity of heteroaromatic linked 4β-amido podophyllotoxins as apoptotic inducing agents” (Bioorg Med Chem Lett, 2013)

Tested on: ACHN
Assay: Cytotoxicity against human ACHN cells […] by MTT assay
Type: functional, cell-based
Details: not given

Row | Compound | IC50 [µM]
1 | COc1cc([C@@H]2c3cc4c(cc3[C@@H](NC(=O)c3cc(-c5ccc(C)cc5)[nH]n3)[C@H]3COC(=O)[C@H]23)OCO4)cc(OC)c1OC | 25.8
2 | COc1cc([C@@H]2c3cc4c(cc3[C@@H](NC(=O)c3cc(-c5ccccc5)[nH]n3)[C@H]3COC(=O)[C@H]23)OCO4)cc(OC)c1OC | 30.2
3 | COc1cc([C@@H]2c3cc4c(cc3[C@@H](NC(=O)c3cc(-c5ccc(C)cc5)on3)[C@H]3COC(=O)[C@H]23)OCO4)cc(OC)c1OC | 28.5
4 | COc1cc([C@@H]2c3cc4c(cc3[C@@H](NC(=O)c3cc(-c5ccc([N+](=O)[O-])cc5)on3)[C@H]3COC(=O)[C@H]23)OCO4)cc(OC)c1OC | 26.4
5 | COc1cc([C@@H]2c3cc4c(cc3[C@@H](NC(=O)c3cc(-c5ccc(F)c(F)c5)[nH]n3)[C@H]3COC(=O)[C@H]23)OCO4)cc(OC)c1OC | 32.5
6 | COc1cc([C@@H]2c3cc4c(cc3[C@@H](NC(=O)c3cc(-c5ccc([N+](=O)[O-])cc5)[nH]n3)[C@H]3COC(=O)[C@H]23)OCO4)cc(OC)c1OC | 23.5

Tested on: HT-29
Assay: Cytotoxicity against human HT-29 cells after 72 hrs by MTT assay
Type: functional, cell-based
Details: HT-29, 72 h

Row | Compound | IC50 [µM]
7 | COc1cc([C@@H]2c3cc4c(cc3[C@@H](NC(=O)c3cc(-c5ccc(C)cc5)[nH]n3)[C@H]3COC(=O)[C@H]23)OCO4)cc(OC)c1OC | 26.5
8 | COc1cc([C@@H]2c3cc4c(cc3[C@@H](NC(=O)c3cc(-c5ccccc5)[nH]n3)[C@H]3COC(=O)[C@H]23)OCO4)cc(OC)c1OC | 26.5
9 | COc1cc([C@@H]2c3cc4c(cc3[C@@H](NC(=O)c3cc(-c5ccc(C)cc5)on3)[C@H]3COC(=O)[C@H]23)OCO4)cc(OC)c1OC | 27.9
10 | COc1cc([C@@H]2c3cc4c(cc3[C@@H](NC(=O)c3cc(-c5ccc([N+](=O)[O-])cc5)on3)[C@H]3COC(=O)[C@H]23)OCO4)cc(OC)c1OC | 22.6
11 | COc1cc([C@@H]2c3cc4c(cc3[C@@H](NC(=O)c3cc(-c5ccc(F)c(F)c5)[nH]n3)[C@H]3COC(=O)[C@H]23)OCO4)cc(OC)c1OC | 10.8
12 | COc1cc([C@@H]2c3cc4c(cc3[C@@H](NC(=O)c3cc(-c5ccc([N+](=O)[O-])cc5)[nH]n3)[C@H]3COC(=O)[C@H]23)OCO4)cc(OC)c1OC | 20.6

Tested on: A549
Assay: Cytotoxicity against human A549 cells […] by MTT assay
Type: functional, cell-based
Details: not given

Row | Compound | IC50 [µM]
13 | COc1cc([C@@H]2c3cc4c(cc3[C@@H](NC(=O)c3cc(-c5ccc(C)cc5)[nH]n3)[C@H]3COC(=O)[C@H]23)OCO4)cc(OC)c1OC | 22.3
14 | COc1cc([C@@H]2c3cc4c(cc3[C@@H](NC(=O)c3cc(-c5ccccc5)[nH]n3)[C@H]3COC(=O)[C@H]23)OCO4)cc(OC)c1OC | 28.9
15 | COc1cc([C@@H]2c3cc4c(cc3[C@@H](NC(=O)c3cc(-c5ccc(C)cc5)on3)[C@H]3COC(=O)[C@H]23)OCO4)cc(OC)c1OC | 24.7
16 | COc1cc([C@@H]2c3cc4c(cc3[C@@H](NC(=O)c3cc(-c5ccc([N+](=O)[O-])cc5)on3)[C@H]3COC(=O)[C@H]23)OCO4)cc(OC)c1OC | 17.9
17 | COc1cc([C@@H]2c3cc4c(cc3[C@@H](NC(=O)c3cc(-c5ccc(F)c(F)c5)[nH]n3)[C@H]3COC(=O)[C@H]23)OCO4)cc(OC)c1OC | 15.8
18 | COc1cc([C@@H]2c3cc4c(cc3[C@@H](NC(=O)c3cc(-c5ccc([N+](=O)[O-])cc5)[nH]n3)[C@H]3COC(=O)[C@H]23)OCO4)cc(OC)c1OC | 19.4

Tested on: B16
Assay: Cytotoxicity against mouse B16 cells […] by MTT assay
Type: functional, cell-based
Details: not given

Row | Compound | IC50 [µM]
19 | COc1cc([C@@H]2c3cc4c(cc3[C@@H](NC(=O)c3cc(-c5ccc(C)cc5)[nH]n3)[C@H]3COC(=O)[C@H]23)OCO4)cc(OC)c1OC | 16.6
20 | COc1cc([C@@H]2c3cc4c(cc3[C@@H](NC(=O)c3cc(-c5ccccc5)[nH]n3)[C@H]3COC(=O)[C@H]23)OCO4)cc(OC)c1OC | 16.3
21 | COc1cc([C@@H]2c3cc4c(cc3[C@@H](NC(=O)c3cc(-c5ccc(C)cc5)on3)[C@H]3COC(=O)[C@H]23)OCO4)cc(OC)c1OC | 20.3
22 | COc1cc([C@@H]2c3cc4c(cc3[C@@H](NC(=O)c3cc(-c5ccc([N+](=O)[O-])cc5)on3)[C@H]3COC(=O)[C@H]23)OCO4)cc(OC)c1OC | 16.8
23 | COc1cc([C@@H]2c3cc4c(cc3[C@@H](NC(=O)c3cc(-c5ccc(F)c(F)c5)[nH]n3)[C@H]3COC(=O)[C@H]23)OCO4)cc(OC)c1OC | 25.6

Tested on: HeLa
Assay: Cytotoxicity against human HeLa cells […] by MTT assay
Type: functional, cell-based
Details: not given

Row | Compound | IC50 [µM]
24 | COc1cc([C@@H]2c3cc4c(cc3[C@@H](NC(=O)c3cc(-c5ccc(C)cc5)[nH]n3)[C@H]3COC(=O)[C@H]23)OCO4)cc(OC)c1OC | 16.9
25 | COc1cc([C@@H]2c3cc4c(cc3[C@@H](NC(=O)c3cc(-c5ccccc5)[nH]n3)[C@H]3COC(=O)[C@H]23)OCO4)cc(OC)c1OC | 7.5
26 | COc1cc([C@@H]2c3cc4c(cc3[C@@H](NC(=O)c3cc(-c5ccc(C)cc5)on3)[C@H]3COC(=O)[C@H]23)OCO4)cc(OC)c1OC | 5.26
27 | COc1cc([C@@H]2c3cc4c(cc3[C@@H](NC(=O)c3cc(-c5ccc([N+](=O)[O-])cc5)on3)[C@H]3COC(=O)[C@H]23)OCO4)cc(OC)c1OC | 7.5
28 | COc1cc([C@@H]2c3cc4c(cc3[C@@H](NC(=O)c3cc(-c5ccc(F)c(F)c5)[nH]n3)[C@H]3COC(=O)[C@H]23)OCO4)cc(OC)c1OC | 14.9
29 | COc1cc([C@@H]2c3cc4c(cc3[C@@H](NC(=O)c3cc(-c5ccc([N+](=O)[O-])cc5)[nH]n3)[C@H]3COC(=O)[C@H]23)OCO4)cc(OC)c1OC | 14.6
